Assay results reported in patent US20100074920A1 (priority 2006, published 2010).
Like-named read-outs stand apart in the source and are kept apart here.

Columns and labels:
[1] = system: serum antibodies of test subjects Serum 1B-8B; details: sera S1B-S8B; streptavidin immobilized peptide
[2] = system: serum antibodies of test subjects 1-6; details: N-terminal conjugate on a streptavidin plate; sera 1-6
[3] = system: serum antibodies of test subjects 1-6; experiment: ELISA on maleimide-activated plates (Cys-immobilized peptides); assay type: binding, human; details: Cys-conjugate on maleimide plate; sera 1-6
Procedure: Peptides containing cysteine were bound through the cysteine sulfhydryl group to maleimide activated plates (Reacti-Bind™ Maleimide activated plates, Pierce). The peptides sequences were as follows:
One hundred microliters of the peptide solution (0.5 nmol of peptide) was added to each well and allowed to react overnight at +4° C.
The unreacted maleimide groups were blocked with 2-mercaptoethanol: 150 μl of 1 mM 2-mercaptoethanol in 10 mM sodium phosphate/0.15 M NaCl/2 mM EDTA, pH 7.2 was added to each well and allowed to react for 1 hour at RT.
The serum obtained from person nr. […] Control wells contained no peptide but both 2-mercaptoethanol and BSA blockings were employed. All incubations were performed in duplicates.

[4] = system: commercial polyclonal antibody from rabbit; experiment: ELISA control, peptide coated on maleimide plate; details: peptide coated on a maleimide plate; negligible binding without the peptide
From the text: A commercial peptide […] (HM11-peptide), which has been used as a recognition tag on recombinant proteins was used as a control and for testing of analysis of binding between a free core peptide and human antibodies. Due to restricted availability of at least N-terminal sequence the peptide would not be very effective in immunization against the viral as therapy. This peptide is known to be antigenic in animals under immunization conditions and antibodies including polyclonals from rabbit, mice etc.

Substance | binding of serum antibodies (immune response), absorbance at 450 nm [1] | immune response of the 6 sera, order of reactivity [2] | other results
Biotin-aminocaproyl-CRPKVRDQC [Peptide 3B] | unusually high response, especially with a person S5B | – | –
Biotin-aminocaproyl-CRPWVRGVC [Peptide 4B] | bind generally more strongly antibodies than the corresponding linear peptide 3 | – | –
Biotin-aminohexanoyl-PWVRGV [Peptide 3] | – | distinct pattern of immune recognition | –
Biotin-aminohexanoyl-SYACKR [Peptide 2] | – | sera 2 and 5 showed strongest immune response before sera 3,4 and 6, while serum 1 showed weakest reaction | immune response of the 6 sera, order of reactivity [3]: reacted with sera similarly but reactions with serum 5 was weaker and the serum 6 showed the strongest response
CYPYDVPDYA [HA11, commercial peptide used as a recognition tag on recombinant proteins; control and core peptide] | – | – | binding of commercial polyclonal antibody from rabbit to the peptide [4]: effective binding
